According to patent US20230330060A1, “COMPOUNDS FOR TREATMENT OF HEART FAILURE” (Sulfateq B.V., priority 2020, published 2023):

Tested on: doxorubicin-induced heart failure
Test: Cardiac ATP/ADP ratio (HPLC)
Format: in vivo, rat
Details: doxorubicin rats; prophylactic or therapeutic administration of SUL-150
Protocol: SUL-150 (250 mg) was dissolved in 100% EtOH (1.02 ml) and further diluted in distilled water (68.7 ml) to obtain a clear 10 mM solution. The SUL-150 solution was sprayed homogeneously over standard food pellets (1.25 kg). Food pellets were air-dried overnight. Food pellets were freshly prepared weekly. With the approximation of 200 mg·kg^−1 SUL-150 in the food pellets and a daily dietary intake of 25 gram for a 350 gram rat, daily dosing of SUL-150 approximates 5 mg·day^−1.
Male outbred Wistar rats of 250-300 grams (10-12 weeks old) were kept on a 12 h light/dark cycle and received a standard diet with distilled water ad libitum. Thirty rats were administered with doxorubicin (2 mg·kg^−1) weekly via intraperitoneal injection for 9 consecutive weeks and were left either untreated (standard chow diet, 10 rats), or received a diet supplemented with SUL-150 as prophylaxis (prior to the 1st doxorubicin administration, 10 rats) or therapy (starting after the 6th doxorubicin administration, 10 rats). […]
Cardiac tissue samples were homogenized in Tris-saturated phenol (pH 7.4) using a TissueRuptor II (Qiagen, Hilden, Germany) to extract adenosines and separated over chloroform:water (1:1 v/v) by centrifugation. […] The eluted nucleotides were detected at a wavelength of 260 nm. Nucleotide concentration of the eluate was calculated using calibration curves for each standard nucleotide peak area. […]

**Q.** How did the “Doxorubicin-induced reduction of cardiac ATP content (normalized for ADP), FIG. 6A” value turn out when `Cc1c(C)c2c(c(C)c1O)CC[C@](C)(C(=O)N1CCNCC1)O2` [SUL-150, (R)-(6-hydroxy-2,5,7,8-tetramethylchroman-2-yl)(piperazin-1-yl)methanone] was run?
**A.** mitigated
